Laboratory results as given in patent publication US7462615B2, “Inhibitors of cysteine proteases, the pharmaceutical compositions thereof and their therapeutic applications” (Hybrigenics SA, priority 2005, dated 2008).
Where “and” joins values, the source holds several entries; their conditions need not be identical. Equal entries are not always repeated.

What was measured:
Caspase 3 = target: T1, Caspase 3 (Homo sapiens, UniProt P42574); experiment: Caspase 3 Activity Assay; format: biochemical; conditions: 500 nM Ac-DEVD-AMC; 3.2 nM enzyme; pre-incubated 30 minutes at 25° C., 60 minutes at 37° C.; sigmoidal fit; read-out: Caspase 3 (Inhibition of cysteine protease activities)
T1 sequence (P42574 29-175 limits assumed): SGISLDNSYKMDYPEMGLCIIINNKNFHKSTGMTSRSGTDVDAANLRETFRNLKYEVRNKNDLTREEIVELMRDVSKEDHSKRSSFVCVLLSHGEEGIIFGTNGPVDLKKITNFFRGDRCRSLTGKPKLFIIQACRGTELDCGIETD
T1 sequence (P42574 176-277 limits assumed): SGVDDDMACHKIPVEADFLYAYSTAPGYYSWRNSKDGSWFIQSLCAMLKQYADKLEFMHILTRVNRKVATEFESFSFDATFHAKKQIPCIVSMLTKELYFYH
Method: Caspase 3 was diluted in Caspase B buffer (100 mM Hepes pH 7.5; 10% sucrose; 0.1% CHAPS). Compounds stocks (100 mM) were stored at −20° C. in DMSO. Compounds were tested at the following final concentrations: 100 μM; 33.3 μM; 11.1 μM; 3.7 μM; 1.23 μM; 412 nM; 137 nM; 45.7 nM; 15.2 nM; 5 nM. Reactions were performed as duplicates in Black LJL 96 well plates (HE microplates; Molecular Devices; 20 μl final reaction volume). The substrate concentration for caspase 3 specificity assay was 500 nM (Ac-DEVD-AMC; Promega). The concentration of the enzyme (Caspase 3) in specificity assays was 3.2 nM. The concentrations were determined in order to perform specificity assays under initial velocities at fixed substrate concentration. Compounds were pre-incubated with enzymes for 30 minutes at 25° C. Reactions were initiated by addition of substrate to the plates containing the enzymes (+/− compounds) diluted in assay buffer. Reactions were incubated for 60 minutes at 37° C. Reactions were stopped by adding acetic acid (100 mM final) Readings were performed on a Pherastar Fluorescent Reader (BMG). δ Emission 380 nm; δ Excitation=460 nm. Data (mean values +/− standard deviation) were analyzed as % of control (no compound) and plotted as percentage versus the Log of the compound concentration using GraphPad (Prism). Data were fitted to a sigmoidal model (variable slope).

Uch-L3 = target: T2, Uch-L3 (Homo sapiens, UniProt P15374); experiment: UCH-L3 Activity Assay; format: biochemical; conditions: 400 nM Ub-AMC; 13 pM enzyme; pre-incubated 30 minutes at 25° C., 60 minutes at 37° C.; sigmoidal fit; read-out: Uch-L3 (Inhibition of cysteine protease activities)
T2 sequence (P15374 1-230): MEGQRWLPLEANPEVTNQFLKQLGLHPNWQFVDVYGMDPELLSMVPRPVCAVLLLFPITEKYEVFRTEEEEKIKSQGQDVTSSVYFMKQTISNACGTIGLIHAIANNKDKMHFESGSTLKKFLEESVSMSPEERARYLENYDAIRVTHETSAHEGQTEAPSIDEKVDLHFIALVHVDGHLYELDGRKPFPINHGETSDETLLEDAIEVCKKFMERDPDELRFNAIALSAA
Method: Uch-L3 was diluted in USP buffer (50 mM Tris HCl; 0.5 mM EDTA; 5 mM DTT; 0.01% Triton X-100; Bovine Serum Albumin 0.05 mg.ml^−1 pH7.6). Compounds stocks (100 mM) were stored at −20° C. in DMSO. Compounds were tested at the following final concentrations: 100 μM; 33.3 μM; 11.1 μM: 3.7 μM; 1.23 μM; 412 nM; 137 nM; 45.7 nM; 15.2 nM; 5 nM.
Reactions were performed as duplicates in Black LJL 96 well plates (HE microplates; Molecular Devices; 20 μl final reaction volume). The substrate concentration for Uch-L3 was 400 nM Ub-AMC (Boston Biochem). The concentration of the enzyme (Uch-L3) in specificity assays was 13 pM. The concentrations were determined in order to perform specificity assays under initial velocities at fixed substrate concentration. Compounds were pre-incubated with enzymes for 30 minutes at 25° C. Reactions were initiated by addition of substrate to the plates containing the enzymes (+/−compounds) diluted in assay buffer. Reactions were incubated for 60 minutes at 37° C. Reactions were stopped by adding acetic acid (100 mM final). Readings were performed on a Pherastar Fluorescent Reader (BMG). δ Emission 380 nm; δ Excitation=460 nm. Data (mean values +/− standard deviation) were analyzed as % of control (no compound) and plotted as percentage versus the Log of the compound concentration using GraphPad (Prism). Data were fitted to a sigmoidal model (variable slope).

Compound	IC50 (Caspase 3)	IC50 (Uch-L3) [nM]
O=C1c2ccccc2-c2nn3c(CO)nnc3nc21 [Example 1h/B]	1020 nM	158
Cn1nc2nc3c(nc2n1)-c1ccccc1C3=O [Example 4a, 2-Methyl-2H-1,2,3,4,10-pentaaza-cyclopenta[b]fluoren-9-one]		3400
COCc1nnc2nc3c(nn12)-c1ccccc1C3=O [Example 1i/B, 3-Methoxymethyl-1,2,3a, 4,10-pentaaza-cyclopenta[b]fluoren-9-one]	556 nM	202
CCc1nnc2nc3c(nn12)C(=O)c1ccccc1-3 [Example 1d/A, 1-Ethyl-2,3,4,10,10a-pentaaza-cyclopenta[b]fluoren-9-one]	11600 nM	430
Cc1nnc2nc3c(nn12)C(=O)c1ccccc1-3 [Example 1b/A, 1-Methyl-2,3,4,10,10a-pentaaza-cyclopenta[b]fluoren-9-one]	4100 nM	516
6-(7)-Chloro-1-methyl-2,3,4,10,10a-pentaaza-cyclopenta[b]fluoren-9-one [Example 3/A]	1510 nM	323
Nc1nnc2nc3c(nn12)C(=O)c1ccccc1-3 [Example 1c/A, 1-Amino-2,3,4,10,10a-pentaaza-cyclopenta[b]fluoren-9-one]	3700 nM	860
CC(C)Cc1nnc2nc3c(nn12)C(=O)c1ccccc1-3 [Example 1g/A, 1-Isobutyl-2,3,4,10,10a-pentaaza-cyclopenta[b]fluoren-9-one]	> 100000 nM	636
O=C1c2ccccc2-c2nc3nn(Cc4ccccc4)nc3nc21 [Example 4b, 2-Benzyl-2H-1,2,3,4,10-pentaaza-cyclopenta[b]fluoren-9-one]		7800
CCCc1nnc2nc3c(nn12)-c1ccccc1C3=O [Example 1e/B, 3-Propyl-1,2,3a, 4,10-pentaaza-cyclopenta[b]fluoren-9-one]	727 nM	168
Nc1nnc2nc3c(nn12)-c1ccccc1C3=O [Example 1c/B, 3-Amino-1,2,3a,4,10-pentaaza-cyclopenta[b]fluoren-9-one]		133
CCCc1nnc2nc3c(nn12)C(=O)c1ccccc1-3 [Example 1e/A, 1-Propyl-2,3,4,10,10a-pentaaza-cyclopenta[b]fluoren-9-one]	> 100000 nM	1270
CC(C)Cc1nnc2nc3c(nn12)-c1ccccc1C3=O [Example 1g/B, 3-Isobutyl-1,2,3a,4,10-pentaaza-cyclopenta[b]fluoren-9-one]	629 nM	183
Cc1nnc2nc3c(nn12)-c1ccccc1C3=O [Example 1b/B, 3-Methyl-1,2,3a,4,10-pentaaza-cyclopenta[b]fluoren-9-one]	424 nM	143
O=C1c2ccccc2-c2nn3c(Cc4ccccc4)nnc3nc21 [Example 1k/B, 3-Benzyl-1,2,3a,4,10-pentaaza-cyclopenta[b]fluoren-9-one]	164 nM	164
O=C1c2ccccc2-c2nn3c(C4CC4)nnc3nc21 [Example 1j/B, 3-Cyclopropyl-1,2,3a,4,10-pentaaza-cyclopenta[b]fluoren-9-one]	188 nM	55
Cc1nnc2nc3c(nn12)-c1ccc(Cl)cc1C3=O [Example 3/B, 7-Chloro-3-methyl-1,2,3a, 4,10-pentaaza-cyclopenta[b]fluoren-9-one]	743 nM	71
CCc1nnc2nc3c(nn12)-c1ccccc1C3=O [Example 1d/B, 3-Ethyl-1,2,3a, 4,10-pentaaza-cyclopenta[b]fluoran-9-one]	212 nM and 467 nM	95
O=C1c2ccccc2-c2nc3nnc(C4CC4)n3nc21 [Example 1j/A, 1-Cyclopropyl-2,3,4,10,10a-pentaaza-cyclopenta[b]fluoren-9-one]	1900 nM	1900
CCCCc1nnc2nc3c(nn12)C(=O)c1ccccc1-3 [Example 1f/A, 1-Butyl-2,3,4,10,10a-pentaaza-cyclopenta[b]fluoren-9-one]	4600 nM	364
O=C1c2ccccc2-c2nc3nnc(Cc4ccccc4)n3nc21 [Example 1k/A, 1-Benzyl-2,3,4,10,10a-pentaaza-cyclopenta[b]fluoren-9-one]	598 nM	598
CCCCc1nnc2nc3c(nn12)-c1ccccc1C3=O [Example 1f/B, 3-Butyl-1,2,3a,4,10-pentaaza-cyclopenta[b]fluoren-9-one]	475 nM	91
O=C1c2ccccc2-c2nc3nnc(CO)n3nc21 [Example 1h/A, 1-Hydroxymethyl-2,3,4,10,10a-pentaaza-cyclopenta[b]fluoren-9-one]	3900 nM	390
COCc1nnc2nc3c(nn12)C(=O)c1ccccc1-3 [Example 1i/A, 1-Methoxymethyl-2,3,4,10,10a-pentaaza-cyclopenta[b]fluoren-9-one]	926 nM	261
